Article PMC8593400, “Effective Search of Triterpenes with Anti-HSV-1 Activity Using a Classification Model by Logistic Regression” (Frontiers in Chemistry, 2021)
“Also recorded” adds a separate entry of the source. Like-named read-outs stand apart in the source and are kept apart here.

Columns and labels:
[1] = cytotoxicity, CellTiter-Glo 3D cell viability assay; format: cell-based; settings: African green monkey
Procedure: (§1) All test compounds were evaluated their cytotoxicity by using CellTiter-Glo 3D® cell viability assay ([Matsumoto et al., 2020]). Briefly, Vero cells (3.0 × 10^3 cells/ well) were seeded in 96-well plates (96F Nunclon TM Delta Microwell SI; Thermo Fisher Scientific), and precultured for 24 h. The cells were treated with test compounds (10 μL/well). After 48 h, CellTiter-Glo® 3D Reagent (Promega, Madison, WI, United States) was added at 100 μL per well, mixed by shaking for 5 min at RT, and incubated for 25 min at 37°C. The cell-containing media were transferred to a 96-well white plate (96F Nunclon TM Delta White Microwell SI; Thermo Fisher Scientific). Luminescence was measured with a luminometer (FLUOstar OPTIMA®; BMG Labtech, Ortenberg, Germany).

[2] = test system: HSV-1; settings: cited from earlier work; for anti-HSV-1 activity previously reported: ref Rattanathongkom et al., 2009
[3] = test system: HSV-1 (HF strain: acyclovir-sensitive); test: plaque reduction assay on Vero cells (anti-HSV-1 activity); format: cell-based, herpes simplex virus type 1; settings: for IC50: 50% inhibitory concentration, plaque reduction
Procedure: Antiviral effects against HSV-1 (HF strain: acyclovir-sensitive) were evaluated using a plaque reduction assay with some modifications as previously reported ([Ogawa et al., 2018]). The activity of all test compounds was measured at 25 μM, corresponding to the threshold of the prediction model. […] The protocol was performed follows.
Vero cells were maintained in Dulbecco’s Modified Eagle Medium (DMEM) supplemented with 10% fetal calf serum (FBS). Vero cells (1.7–2.8 × 10^5 cells/well) were seeded onto a 12-well tissue culture plate and precultured for 1–2 days. The cells were inoculated with 100 plaque-forming units (PFU) of HSV-1 in 0.1 ml of FBS-free DMEM. After 30 min, the inoculum was removed. HSV-infected cells were maintained in DMEM containing 10% FBS, methylcellulose, and serially diluted test compounds. After 48 h of incubation at 37°C, the medium was removed. The cell sheets were stained with 1% crystal violet dissolved in 50% methanol, and the number of plaques larger than 0.4 mm was counted. HSV-1 replication causes cytopathic effects, resulting in plaque formation. The number and size of plaques reflected virus yields. To examine the effect of virus yield reduction, the total plaque number in cells untreated with the compound was defined as 100% and set as the control group. The significant difference of test compounds at 25 μM from the control group was calculated using the Student’s t-test. The significant difference of each concentration of 10–13 and 16 from the control group was calculated by Dunnett’s test. Probability (p) values less than 0.05 were considered to be significant (^* p < 0.05, ^** p < 0.01).

[4] = test system: Vero cells; test: cytotoxicity, CellTiter-Glo 3D cell viability assay; format: cell-based
Procedure: as §1

[5] = parameters: method as in Rattanathongkom et al., 2009; settings: ref Rattanathongkom et al., 2009; cited from earlier work
[6] = Human alphaherpesvirus 1, Vero, 48 h, 5 μM, plaque number vs untreated control, Vero cells, 48 h, read-out: Inhibitory rate (%) 5 μM
[7] = Human alphaherpesvirus 1, Vero, 48 h, 10 μM, plaque number vs untreated control, Vero cells, 48 h, read-out: Inhibitory rate (%) 10 μM
[8] = Human alphaherpesvirus 1, Vero, 48 h, 25 μM, plaque number vs untreated control, Vero cells, 48 h, read-out: Inhibitory rate (%) 25 μM
[9] = Human alphaherpesvirus 1, Vero, 48 h, read-out: Inhibitory rate (%) 25 μM, 25 μM, plaque number vs untreated control, Vero cells, 48 h
[10] = Human alphaherpesvirus 1, Vero, Vero cells, read-out: IC50

CC1(C)CC[C@]2(C(=O)O)CC[C@]3(C)C(=CCC4[C@@]5(C)C[C@H](O)[C@H](O)[C@@](C)(CO)C5CC[C@]43C)[C@@H]2C1 (some centres unmarked) [Compound 2, bayogenin]
viability at 48 h, 25 µM ([1]; Cell viability (%)): 117 ± 6.99%

CC(C)[C@@H](O)C[C@@H](O)[C@](C)(O)[C@H]1CC[C@@]2(O)C3=CC(=O)[C@@H]4C[C@@H](O)[C@@H](O)C[C@]4(C)[C@H]3CC[C@]12C [Compound 7, pterosterone]
viability at 48 h, 25 µM ([1]; Cell viability (%)): 115 ± 3.95%

cucurbitacin B [reference compound]
anti-HSV-1 activity ([2]; ref Hassan et al., 2017): strong anti-HSV-1 activity
selectivity index ([2]; ref Hassan et al., 2017): high

CC(C)(O)CCC(=O)[C@](C)(O)[C@H]1CC[C@@]2(O)C3=CC(=O)[C@@H]4C[C@@H](O)[C@@H](O)C[C@]4(C)C3CC[C@]12C (some centres unmarked) [Compound 15, 22-oxo-20-hydroxyecdysone]
viability at 48 h, 25 µM ([1]; Cell viability (%)): 115 ± 3.93%

C[C@]12C[C@H](O)[C@H](O)C[C@H]1C(=O)C=C1[C@@H]2CC[C@]2(C)[C@@H](O)CC[C@@]12O [Compound 9, 2β,3β,14α,17β-tetrahydroxy-5β-androst-7-en-6-one]
viability at 48 h, 25 µM ([1]; Cell viability (%)): 106 ± 3.86%

CC1(C)C(=O)CC[C@@]2(C)C1CC[C@]1(C)C2CC=C2[C@@H]3C[C@](C)(C(=O)O)CC[C@]3(C(=O)O)CC[C@]21C (stereo partly drawn) [Compound 5, (20α)-3-oxoolean-12-ene-28,29-dioic acid]
viability at 48 h, 25 µM ([1]; Cell viability (%)): 122 ± 5.6%

C=C1CCC2(C(=O)OC3OC(CO)C(O)C(O)C3O)CCC3(C)C(=CCC4C5(C)CCC(OC6OC(C(=O)O)C(O)C(O)C6O)C(C)(C)C5CCC43C)C2C1 (centres unmarked) [Compound 12, boussingoside A2]
anti-HSV-1 activity in words (significance vs control) ([3]; 25 μM): significant activity; also recorded: moderate anti-HSV-1 activity
inhibition at 5 µM [3, 6]: 4.42 ± 8.12%
inhibition at 10 µM [3, 7]: 2.77 ± 11.6%
inhibition at 25 µM [3, 8]: 24.7 ± 10.2%
cytotoxicity in words [4]: no cytotoxicity
viability at 48 h, 25 µM ([1]; Cell viability (%)): 112 ± 6.79%
viability at 48 h, 50 µM ([1]; Cell viability (%)): 111 ± 9.73%

CC1(C)CC[C@]2(C(=O)O)CC[C@]3(C)C(=CC[C@@H]4[C@@]5(C)CC[C@H](O)C(C)(C)[C@@H]5CC[C@]43C)[C@@H]2C1 [oleanolic acid, reference compound]
inhibition at 5 µM [3, 6]: 9.02 ± 4.22%
inhibition at 25 µM [3, 8]: 21.4 ± 11.6%

C[C@@H](C1CC[C@@]2(C)C3=C(CC[C@]12C)[C@@]1(C)CC[C@H](O)C(C)(C)C1CC3)[C@H](O)/C=C/C(C)(C)OO (stereo partly drawn) [Compound 17, 3β,22R-Dihydroxylanosta-8,23E-diene-25-peroxide]
viability at 48 h, 25 µM ([1]; Cell viability (%)): 16.8%

CC(C)=CCC[C@@H](C)[C@H]1CC[C@@]2(C)C3=C(CC[C@]12C)[C@@]1(C)CC[C@H](O)C(C)(C)[C@@H]1CC3 [Compound 19, lanosterol]
inhibition at 25 µM [3, 9]: 20.4 ± 8.49%
viability at 48 h, 25 µM ([1]; Vero cells, 25 μM, Vero cells, 48 h, read-out: Cell viability (%)): 101 ± 4.72%

C[C@H](C/C=C/C(C)(C)OO)C1CC[C@@]2(C)C3=C(CC[C@]12C)[C@@]1(C)CC[C@H](O)C(C)(C)C1CC3 (stereo partly drawn) [Compound 20, (3β,23E)-25-hydroperoxylanosta-8,23-dien-3-ol]
inhibition at 25 µM [3, 8]: 19 ± 9.25%

C=C1CCC2(C(=O)O)C(O)CC3(C)C(=CCC4C5(C)CCC(OC6OC(C(=O)O)C(O)C(O)C6O)C(C)(C)C5CCC43C)C2C1 (centres unmarked) [Compound 4, Pfaffiaglycoside B]
inhibition at 25 µM [3, 8]: 7.64 ± 10.7%
viability at 48 h, 25 µM ([1]; Cell viability (%)): 108 ± 4.17%

Nc1nc2c(ncn2COCCO)c(=O)[nH]1 [acyclovir, reference compound]
IC50 [3, 10]: 3.08 µM
inhibition at 2.5 µM ([3]; Human alphaherpesvirus 1, Vero, 48 h, 2.5 μM, plaque number vs untreated control, Vero cells, 48 h, read-out: Inhibitory rate (%) 2.5 μM): 57.5 ± 11.9%
inhibition at 10 µM [3, 7]: 96 ± 11.8%
viability at 48 h, 10 µM ([1]; Vero cells, 10 μM, Vero cells, 48 h, read-out: Cell viability (%)): 103 ± 13.8%

CC1(C)CCC2(C(=O)O)CCC3(C)C(=CCC4C5(C)CCC(OC6OC(C(=O)O)C(O)C(O)C6O)C(C)(C)C5CCC43C)C2C1 [Compound 10, oleanolic acid 3-O-β-D-glucuronopyranoside]
anti-HSV-1 activity previously reported [2]: did not show any anti-HSV-1 activity
anti-HSV-1 activity in words (significance vs control) ([3]; 25 μM): significant activity
IC50 ([3]; Vero cells, read-out: IC50): 14.1 µM
IC50 [3, 10]: < 25 µM
inhibition at 5 µM [3, 6]: 5.85 ± 8.4%
inhibition at 10 µM [3, 7]: 27.5 ± 8.92%
inhibition at 25 µM [3, 8]: 83.3 ± 41.1%
cytotoxicity previously reported [5]: cytotoxicity
cytotoxicity in words [4]: showed cytotoxicity
Cell viability (%) ([4]; African green monkey, 48 h, 10 µM): 104.0 ± 9.28%
viability at 48 h, 10 µM ([1]; Cell viability (%)): 104 ± 9.28%
viability at 48 h, 25 µM ([1]; Cell viability (%)): 14.6%
viability at 48 h, 50 µM ([1]; Cell viability (%)): 1.47 ± 0.54%

C[C@@H]1CC[C@]2(C(=O)O)CC[C@]3(C)C(=CC[C@@H]4[C@@]5(C)C[C@@H](O)[C@@H](O)C(C)(C)[C@@H]5CC[C@]43C)[C@@H]2[C@]1(C)O [Compound 1, Euscaphic acid]
inhibition at 25 µM [3, 8]: 0%
viability at 48 h, 25 µM ([1]; Cell viability (%)): 117 ± 5.2%

CC1(C)CC[C@]2(C(=O)O[C@@H]3O[C@H](CO)[C@@H](O)[C@H](O)[C@H]3O)CC[C@]3(C)C(=CC[C@@H]4[C@@]5(C)CC[C@H](O[C@@H]6O[C@H](C(=O)O)[C@@H](O)[C@H](O)[C@H]6O)C(C)(C)[C@@H]5CC[C@]43C)[C@@H]2C1 [Compound 11, chikusetsusaponin IVa]
anti-HSV-1 activity previously reported [2]: exhibit anti-HSV-1 activity
anti-HSV-1 activity in words (significance vs control) ([3]; 25 μM): significant activity
Inhibitory rate (%) 25 μM ([3]; 25 μM, plaque number vs untreated control, Vero cells, 48 h, 25 µM): 51.82 ± 9.61^** %
IC50 ([3]; Vero cells): 13.1 µM
IC50 ([3]; Human alphaherpesvirus 1, Vero, Vero cells): < 25 µM
inhibition at 5 µM ([3]; Human alphaherpesvirus 1, Vero, 48 h, read-out: Inhibitory rate (%) 5 μM, 5 μM, plaque number vs untreated control, Vero cells, 48 h): 14.6 ± 15%
inhibition at 10 µM ([3]; Human alphaherpesvirus 1, Vero, 48 h, read-out: Inhibitory rate (%) 10 μM, 10 μM, plaque number vs untreated control, Vero cells, 48 h): 36.8 ± 17.4%
inhibition at 25 µM [3, 9]: 51.8 ± 9.61%
viability at 48 h, 25 µM ([1]; Cell viability (%)): 112 ± 4.45%
viability at 48 h, 50 µM ([1]; Cell viability (%)): 113 ± 6.08%

CC(C)(O)CCC[C@](C)(O)[C@H]1CC[C@@]2(O)C3=CC(=O)[C@@H]4C[C@@H](O)[C@@H](O)C[C@]4(C)C3CC[C@]12C (some centres unmarked) [Compound 8, taxisterone]
viability at 48 h, 25 µM ([1]; Cell viability (%)): 122 ± 4.78%

C=C1CC[C@]2(C(=O)O)[C@@H](O)C[C@]3(C)C(=CC[C@@H]4[C@@]5(C)CC[C@H](O)C(C)(C)[C@@H]5CC[C@]43C)[C@@H]2C1 [Compound 6, pfaffianol A]
inhibition at 25 µM [3, 8]: 12.4 ± 16.9%
viability at 48 h, 25 µM ([1]; Cell viability (%)): 122 ± 6.84%

CC(C)=CCC[C@@H](C=O)[C@H]1CC[C@@]2(C)C3=C(CC[C@]12C)[C@@]1(C)CC[C@H](O)C(C)(C)[C@@H]1CC3 [Compound 18, 3β-hydroxylanosta-8,24-dien-21-al]
inhibition at 25 µM [3, 8]: 1.24 ± 3.8%
viability at 48 h, 25 µM ([1]; Cell viability (%)): 113 ± 4.93%

CC(C)C(C)CCC(C)C1CCC2C1(C)CCC1C23C=CC2(CC(O)CCC12C)OO3 (stereo not drawn) [Compound 16, 5α,8α-epidioxyergosta-3β-ol]
anti-HSV-1 activity in words (significance vs control) ([3]; 25 μM): significant activity
inhibition at 5 µM [3, 6]: -2.49 ± 8.74%
inhibition at 10 µM [3, 7]: 0%
inhibition at 25 µM [3, 8]: 27.2 ± 5.52%
viability at 48 h, 25 µM ([1]; Cell viability (%)): 130 ± 6.83%
viability at 48 h, 50 µM ([1]; Cell viability (%)): 2.96 ± 1.77%
